Where two headings read alike, the source gives them in different places.
System: compound-treated mice
Assay: Neuropharmacological assay (SmartCube): behavioral activity signature and minimal effective dose
Format: in vivo
Settings: for minimal effective dose: Mus musculus, ip, MED = dose having 50% or more total activity; for AD: ADHD (probability of activity signature) / AG: analgesic (probability of activity signature) / AX: anxiolytic (probability of activity signature) / CE: cognitive enhancer (probability of activity signature) / DP: anti-depressant (probability of activity signature) / MS: mood stabilizer (probability of activity signature) / PS: anti-psychotic (probability of activity signature) / SD: sedative hypnotic (probability of activity signature) / UN: uncharacterized CNS activity (probability of activity signature): i.p. 15 min before test, most efficacious dose(s)
Outline: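 Mice dosed i.p. 15 min before test, compound in N-methyl-2-pyrrolidone/PEG/propylene glycol, 3 doses; video-captured behavior matched to reference-drug signatures, giving per-class probabilities at most efficacious dose. MED from doses typically 0.3–30 mpk, defined as lowest dose with ≥50% total activity.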

[1] = read-out: Potency: minimal effective dose (MED)
[2] = read-out: Potency: minimal effective dose (MED), binned

Row | SMILES | minimal effective dose [1] [mg/kg] | AD: ADHD (probability of activity signature) | AG: analgesic (probability of activity signature) | AX: anxiolytic (probability of activity signature) | CE: cognitive enhancer (probability of activity signature) | DP: anti-depressant (probability of activity signature) | MS: mood stabilizer (probability of activity signature) | PS: anti-psychotic (probability of activity signature) | SD: sedative hypnotic (probability of activity signature) | UN: uncharacterized CNS activity (probability of activity signature) | minimal effective dose [2] [mg/kg]
1 | Cl.NC1COCc2c(F)cccc21 (stereo not drawn) [Example 23] | 10 to 30 | + (LOQ ≤ + <5%) | ++ (5% ≤ ++ <25%) | +++ (25% ≤ +++ <50%) | ++ (5% ≤ ++ <25%) | ++ (5% ≤ ++ <25%) | + (LOQ ≤ + <5%) | ++ (5% ≤ ++ <25%) | + (LOQ ≤ + <5%) | ++ (5% ≤ ++ <25%) | 
2 | Cc1ccc2c(c1)[C@@H](C)OC[C@H]2N [Example 221] |  | + (LOQ ≤ + <5%) | + (LOQ ≤ + <5%) | ++ (5% ≤ ++ <25%) | + (LOQ ≤ + <5%) | ++ (5% ≤ ++ <25%) | + (LOQ ≤ + <5%) | ++ (5% ≤ ++ <25%) | + (LOQ ≤ + <5%) | ++++ (50% ≤ ++++) | 3 to 10
3 | C[C@H]1OCc2ccc(C(F)(F)F)cc2[C@@H]1N.Cl [Example 229] |  | + (LOQ ≤ + <5%) | + (LOQ ≤ + <5%) | ++ (5% ≤ ++ <25%) | ++ (5% ≤ ++ <25%) | ++ (5% ≤ ++ <25%) | + (LOQ ≤ + <5%) | ++ (5% ≤ ++ <25%) | + (LOQ ≤ + <5%) | +++ (25% ≤ +++ <50%) | 3 to 10
4 | Cl.NC1COCc2ccc3c(c21)CCCO3 (stereo not drawn) [Example 52, 1,2,4,8,9,10-Hexahydropyrano[4,3-f]chromen-1-amine hydrochloride] | 3 to 10 | + (LOQ ≤ + <5%) | ++ (5% ≤ ++ <25%) | +++ (25% ≤ +++ <50%) | ++ (5% ≤ ++ <25%) | ++ (5% ≤ ++ <25%) | + (LOQ ≤ + <5%) | ++ (5% ≤ ++ <25%) | ++ (5% ≤ ++ <25%) | + (LOQ ≤ + <5%) | 
5 | C[C@@H]1OC[C@@H](N)c2cc(Cl)ccc21.Cl [Example 204] |  | + (LOQ ≤ + <5%) | + (LOQ ≤ + <5%) | ++ (5% ≤ ++ <25%) | ++ (5% ≤ ++ <25%) | + (LOQ ≤ + <5%) | + (LOQ ≤ + <5%) | ++ (5% ≤ ++ <25%) | ++ (5% ≤ ++ <25%) | ++++ (50% ≤ ++++) | 3 to 10
6 | CC[C@H]1OCc2ccc(C)cc2[C@@H]1N.Cl (relative stereo) [Example 99, trans-3-Ethyl-6-methylisochroman-4-amine hydrochloride] | 3 to 10 | + (LOQ ≤ + <5%) | ++ (5% ≤ ++ <25%) | +++ (25% ≤ +++ <50%) | ++ (5% ≤ ++ <25%) | ++ (5% ≤ ++ <25%) | + (LOQ ≤ + <5%) | ++ (5% ≤ ++ <25%) | + (LOQ ≤ + <5%) | +++ (25% ≤ +++ <50%) | 
7 | N[C@H]1COCc2ccc(Cl)c(Cl)c21 (single isomer, unassigned) [Example 120] | 3 to 10 | + (LOQ ≤ + <5%) | ++ (5% ≤ ++ <25%) | +++ (25% ≤ +++ <50%) | ++ (5% ≤ ++ <25%) | ++ (5% ≤ ++ <25%) | + (LOQ ≤ + <5%) | ++ (5% ≤ ++ <25%) | ++ (5% ≤ ++ <25%) | ++ (5% ≤ ++ <25%) | 
8 | Cl.NC1CCOCc2c(Cl)cccc21 (stereo not drawn) [Example 40] | 3 to 10 | + (LOQ ≤ + <5%) | ++ (5% ≤ ++ <25%) | +++ (25% ≤ +++ <50%) | ++ (5% ≤ ++ <25%) | + (LOQ ≤ + <5%) | + (LOQ ≤ + <5%) | ++ (5% ≤ ++ <25%) | + (LOQ ≤ + <5%) | ++ (5% ≤ ++ <25%) | 
9 | CC[C@@H]1OCc2ccccc2[C@@H]1N(C)C.Cl (single isomer, unassigned) [Example 260] |  | ++ (5% ≤ ++ <25%) | + (LOQ ≤ + <5%) | + (LOQ ≤ + <5%) | + (LOQ ≤ + <5%) | + (LOQ ≤ + <5%) | ++ (5% ≤ ++ <25%) | + (LOQ ≤ + <5%) | ++ (5% ≤ ++ <25%) | + (LOQ ≤ + <5%) | 3 to 10
10 | CC[C@@H]1OCc2ccc(C)cc2[C@H]1N (single isomer, unassigned) [Example 178] |  | + (LOQ ≤ + <5%) | ++ (5% ≤ ++ <25%) | ++ (5% ≤ ++ <25%) | + (LOQ ≤ + <5%) | ++ (5% ≤ ++ <25%) | + (LOQ ≤ + <5%) | ++ (5% ≤ ++ <25%) | ++ (5% ≤ ++ <25%) | +++ (25% ≤ +++ <50%) | 10 to 30
11 | Cc1ccc2c(c1)[C@H](N)[C@@H](C)OC2 [Example 155] | 3 to 10 | + (LOQ ≤ + <5%) | ++ (5% ≤ ++ <25%) | ++++ (50% ≤ ++++) | ++ (5% ≤ ++ <25%) | ++ (5% ≤ ++ <25%) | + (LOQ ≤ + <5%) | ++ (5% ≤ ++ <25%) | ++ (5% ≤ ++ <25%) | ++ (5% ≤ ++ <25%) | 
12 | Cl.NC1COCc2c(Cl)cccc21 (stereo not drawn) [Example 5] | < 3 | + (LOQ ≤ + <5%) | ++ (5% ≤ ++ <25%) | ++ (5% ≤ ++ <25%) | ++ (5% ≤ ++ <25%) | ++ (5% ≤ ++ <25%) | + (LOQ ≤ + <5%) | ++ (5% ≤ ++ <25%) | ++ (5% ≤ ++ <25%) | +++ (25% ≤ +++ <50%) | 
13 | CN[C@@H]1COCc2ccc(C)c(C)c21 [Example 143] | 3 to 10 | + (LOQ ≤ + <5%) | +++ (25% ≤ +++ <50%) | ++ (5% ≤ ++ <25%) | ++ (5% ≤ ++ <25%) | ++ (5% ≤ ++ <25%) | + (LOQ ≤ + <5%) | + (LOQ ≤ + <5%) | ++ (5% ≤ ++ <25%) | ++ (5% ≤ ++ <25%) | 
14 | Cc1cccc2c1[C@H](N)COC2 (single isomer, unassigned) [Example 133] | < 3 | + (LOQ ≤ + <5%) | ++ (5% ≤ ++ <25%) | ++ (5% ≤ ++ <25%) | ++ (5% ≤ ++ <25%) | ++ (5% ≤ ++ <25%) | + (LOQ ≤ + <5%) | +++ (25% ≤ +++ <50%) | + (LOQ ≤ + <5%) | ++++ (50% ≤ ++++) | 
15 | C#CCN[C@H]1COCc2ccccc21.Cl [Example 266] |  | + (LOQ ≤ + <5%) | + (LOQ ≤ + <5%) | + (LOQ ≤ + <5%) | + (LOQ ≤ + <5%) | + (LOQ ≤ + <5%) | ++ (5% ≤ ++ <25%) | + (LOQ ≤ + <5%) | ++ (5% ≤ ++ <25%) | + (LOQ ≤ + <5%) | 3 to 10

Reference: patent US11077090B2, “Compounds and compositions and uses thereof” (Sunovion Pharmaceuticals Inc., priority 2016, dated 2021)
